In one data set the test system is IMR32 cells. Briefly: soft agar colony formation after gene introduction. As to conditions: 3 weeks, 500 μg/ml G418, vs empty vector. The data set is classed as cell-based, human. The protocol: (§1) Adherence to solid matter has been known as an example of a difference between properties of normal cells and those of cancer cells under culture conditions. In other words, it is necessary for normal cells to adhere to solid matter for cell proliferation (anchorage dependence). When normal cells are cultured in a soft agar medium (about 0.33%), they can not proliferate while floating in such medium. However, many cancer cells lack anchorage dependence so that they can proliferate in a soft agar medium. Since floating cancer cells cannot move in a soft agar medium, a single cancer cell is repeatedly divided such that the divided cells form a colony in 1 to 3 weeks time. Since there is a correlation between the ability of the cell to form a soft agar colony and the implanted tumor forming ability, the degree of such ability has been widely used as an index of malignancy (Shin, S. I., et al., Proc. Natl. Acad. Sci. USA 72, 4435, 1975). A full-length NR1I2 cDNA was inserted into pCMV-Tag3 vector (Stratagene) in which an myc peptide can be added to the amino terminal of an inserted gene (PCMV-Tag3-NR1I2). In addition, we already have discovered that a fusion product of a herpes-virus-derived VP16 protein and an NR1I2 protein has stronger transcriptional activity than that of an NR1I2 protein alone. […] Then, the number of colonies was counted (FIGS. 8A and 8B).

Another data set relates to SMS-KAN cells. Description: soft agar colony formation after gene introduction. The data set is classed as cell-based, human. As to conditions: 3 weeks, 500 μg/ml G418, vs empty vector. The procedure:
as §1

“NR1I2 gene: human-derived gene, nuclear receptor subfamily 1, group I, member 2 (pregnane X receptor, PXR), nucleotide sequence SEQ ID NO: 1”: the number of colonies result with IMR32 cells and in the data set on SMS-KAN cells was “significantly reduced” each time.

(Values after patent publication US20090011424A1, “Cancer-suppressing agents” (Tokyo Medical and Dental University, priority 2005, published 2009).)
